From ChEMBL document CHEMBL2390950, “Dieckol, a SARS-CoV 3CL(pro) inhibitor, isolated from the edible brown algae Ecklonia cava” (Bioorg Med Chem, 2013) come the findings set out here.

The source made the active and inactive calls. No cut-off for these calls is given here.

The target of data set [1] is Replicase polyprotein 1ab (Severe acute respiratory syndrome-related coronavirus) (UniProt P0C6X7).
Data set [2] has the same target. This is another data set of the same source.
For data set [3], the target named is T1, Replicase polyprotein 1ab (Severe acute respiratory syndrome-related coronavirus, UniProt P0C6X7).
Data set [4] can be described thus: Selectivity index, ratio of CC50 for african green monkey Vero cells to IC50 for SARS coronavirus 3C-like protease cis-cleavage activity transfected in african green monkey Vero cells. The data set is classed as functional.
Data set [5] deals with Replicase polyprotein 1ab (Severe acute respiratory syndrome-related coronavirus) (UniProt P0C6X7). Put plainly: (§1) Inhibition of SARS coronavirus 3C-like protease cis-cleavage activity transfected in african green monkey Vero cells using SAVLQSGFRK as substrate after 5 hrs by luciferase reporter gene assay. The format is cell-based. On the technique in general: A reporter such as luciferase makes a cellular process visible.

The target of data set [6] is T1, Replicase polyprotein 1ab. Described as §1. The data set is classed as cell-based.
Data set [7] deals with Vero. Put plainly: (§2) Cytotoxicity against african green monkey Vero cells assessed as cell death by MTT assay. The data set is classed as cell-based. The following applies: chlorocebus sabaeus, vero. Background: Tetrazolium assays rely on reduction of a dye to a coloured formazan, in cell work by metabolically active cells.
Data set [8] deals with T1, Replicase polyprotein 1ab. This is another data set of the same source.
Data set [9] addresses Replicase polyprotein 1ab (Severe acute respiratory syndrome-related coronavirus) (UniProt P0C6X7). Put plainly: (§3) Binding affinity to SARS coronavirus 3C-like protease by SPR analysis. Background: SPR reads the build-up and loss of mass on a sensor chip optically.
The target of data set [10] is T1, Replicase polyprotein 1ab. Described as §3.
Data set [11] deals with Replicase polyprotein 1ab (Severe acute respiratory syndrome-related coronavirus) (UniProt P0C6X7). The source holds these as a separate data set.
The target is the same in data set [12]. This is another data set of the same source.
Data set [13] shares this target. This is another data set of the same source.
Data set [14] shares this target. Put plainly: Inhibition of SARS coronavirus 3C-like protease cis-cleavage activity transfected in african green monkey Vero cells using SAVLQSGFRK as substrate at 200 uM after 5 hrs by luciferase reporter gene assay relative to control. The format is cell-based.
A short description of data set [15]: as §2. The format is cell-based. The following applies: chlorocebus sabaeus, Vero cells.

A word on the inhibition: it is how much of the control response was suppressed. The IC50 is the midpoint of a concentration-inhibition curve. As usually defined, the CC50 is the concentration that lowers cell viability or growth by half. Usually Ki stands for the equilibrium dissociation constant of an inhibitor or competing ligand from its target. Turning to `Oc1cc(O)cc(Oc2c(O)cc(O)c3c2Oc2c(O)cc(Oc4c(O)cc(O)cc4O)cc2O3)c1`, the inhibition result in [1] is “Active”. Also, the inhibition result in data set [2] and in data set [5] was “Dose-dependent effect” throughout. The IC50 in data set [3] turned out to be 42.1 µM; in data set [6] it was 112 µM. Besides, the “Ratio CC50/IC50” value in data set [4] is listed as greater than 1.8. Also, in [7], the CC50 was greater than 200 µM. This compound had an inhibition constant (Ki) in data set [8] of 19.3 µM.
On to `Oc1cc(O)cc(Oc2c(Oc3c(O)cc(O)cc3O)cc(O)c3c2Oc2c(O)cc(O)cc2O3)c1` [2-PHLOROECKOL], for which the inhibition result in [1] was “Active”. Also, the inhibition result in data set [2] and in [5] was “Dose-dependent effect” throughout. Also, the IC50 worked out at 13.3 µM in [3] and 112 µM in [6]. Further, the “Ratio CC50/IC50” value in data set [4] is recorded as greater than 1.8. Besides, the half-maximal cytotoxic concentration (CC50) in [7] is greater than 200 µM. Besides, the affinity in data set [8], expressed as Ki, was 24 µM.
As a reminder, the Kd is the equilibrium constant for the complex coming apart. With `Oc1cc(O)cc(Oc2c(O)cc(O)c3c2Oc2c(O)cc(Oc4c(O)cc(Oc5c(O)cc(O)c6c5Oc5c(O)cc(O)cc5O6)cc4O)cc2O3)c1` [DIECKOL], the Activity entry in data set [9] was “Dose-dependent effect”. In data set [10], this compound showed a Kd of 10.3 µM. Besides, the inhibition result in [1] was “Active”. Also, the inhibition result in data set [2] and in [5] was “Dose-dependent effect” in each case. For the same compound, the IC50 in data set [3] came out at 2.7 µM; in data set [6], 68.1 µM. Besides, the “Ratio CC50/IC50” value in data set [4] is reported as greater than 2.9. For the same compound, the Ratio IC50 was 30 in [11], 60 in data set [12] and 50 in [13]. The CC50 in data set [7] is greater than 200 µM. For the same compound, in data set [8], the affinity corresponds to a Ki of 2.4 µM.
On to `Oc1cc(O)c2oc3cc(O)c4oc5cc(O)cc(O)c5oc4c3oc2c1` [DIOXINODEHYDROECKOL], for which the inhibition result in data set [2] and in [5] was “Dose-dependent effect” in each case. The results for the IC50 in data set [3] and in data set [6] were 158 µM and 146 µM, respectively. In addition, the “Ratio CC50/IC50” value in [4] is given as greater than 1.4. For the same compound, the CC50 in data set [7] was greater than 200 µM.
`Oc1cc(O)cc(Oc2c(O)cc(O)c3c2Oc2c(O)cc(O)cc2O3)c1` [ECKOL]: the inhibition entry in [1] was “Active”. Moreover, the inhibition entry is “Dose-dependent effect” in data set [2] and 30% in data set [14]. Moreover, the IC50 in [3] is 8.8 µM. Moreover, in data set [4], the “Ratio CC50/IC50” value is reported as less than 1. For the same compound, the CC50 in data set [7] is greater than 200 µM. In [8], this compound returned a Ki of 8.2 µM.
Consider `Oc1cc(O)c(Oc2cc(O)cc(O)c2Oc2cc(O)cc(O)c2-c2c(O)cc(O)cc2O)c(O)c1` [FUCODIPHLOROETHOL G], for which the inhibition result in data set [1] is “Active”. In addition, the inhibition result in data set [2] and in data set [5] was “Dose-dependent effect” each time. Besides, the results for the IC50 in data set [3] and in [6] were 22.5 µM and 177 µM, respectively. The “Ratio CC50/IC50” value in [4] is recorded as greater than 1.1. Further, the CC50 in data set [7] is greater than 200 µM. In [8], this compound returned a Ki of 63.5 µM.
Regarding `COc1ccc([C@@H]2CC(=O)c3c(O)cc(O)cc3O2)cc1O` [HESPERETIN], the affinity in [10], expressed as Kd, was 24.5 µM.
In the case of `Oc1cc(O)cc(Oc2c(O)cc(O)c3c2Oc2c(O)cc4oc5c(Oc6cc(O)cc(O)c6)c(O)cc(O)c5c4c2O3)c1` [PHLOROFUCOFUROECKOL A], the inhibition entry in data set [1] is “Active”. The inhibition result in [2] and in data set [5] was “Dose-dependent effect” throughout. Besides, the results for the half-maximal inhibitory concentration (IC50) in data set [3] and in data set [6] were 16.7 µM and 175 µM, respectively. The “Ratio CC50/IC50” value in data set [4] was greater than 1.1. The CC50 in data set [7] was greater than 200 µM. This compound returned an inhibition constant Ki in data set [8] of 10.6 µM.
Compound `Oc1cc(O)cc(O)c1` [PHLOROGLUCINOL] registered an IC50 in data set [3] greater than 200 µM. The CC50 in data set [7] is greater than 200 µM.
In the case of `Oc1cc(O)cc(Oc2c(O)cc(Oc3c(O)cc(O)cc3O)cc2O)c1` [TRIPHLORETHOL A], the inhibition result in [2] is “Dose-dependent effect”; in data set [14], 15%. The “Ratio CC50/IC50” value in data set [4] is less than 1. Moreover, in [15], the CC50 was greater than 200 µM.
